Paper PMC2409929 (British Journal of Cancer, 2004)
Marks after values point to notes of the source that are not given here.

Test system: patients with metastatic colorectal cancer
Test: Toxicity graded by NCI-CTC in the phase II trial
Type: in vivo, human
Details: for Anaemia, Grade 3–4, %Patients / Anaemia, all grades, %Patients / Leukocytopenia, Grade 3–4, %Patients / Leukocytopenia, all grades, %Patients / Neutropenia, Grade 3–4, %Patients / Neutropenia, all grades, %Patients / Thrombocytopenia, Grade 3–4, %Patients / Thrombocytopenia, all grades, %Patients: worst grade during study
Description: Haematology was checked weekly.
Otherwise, they were analysed by nonparametric methods. […] All tests for significance were two-tailed.

[1] = arm A (350 mg m^−2 90-min i.v. q3 weeks)
[2] = arm A (350 mg m^−2 90-min i.v. q3 weeks), possibly or probably related
[3] = arm B (125 mg m^−2 90-min i.v. weekly × 4 q6 weeks)
[4] = arm B (125 mg m^−2 90-min i.v. weekly × 4 q6 weeks), possibly or probably related
[5] = arm C (250 mg m^−2 90-min i.v. q2 weeks)
[6] = arm C (250 mg m^−2 90-min i.v. q2 weeks), possibly or probably related
[7] = arm D (10 mg m^−2 day^−1 14-day continuous infusion q3 weeks)
[8] = arm D (10 mg m^−2 day^−1 14-day continuous infusion q3 weeks), possibly or probably related

Q: Which results are given for `CCc1c2c(nc3ccc(OC(=O)N4CCC(N5CCCCC5)CC4)cc13)-c1cc3c(c(=O)n1C2)COC(=O)[C@]3(O)CC` [irinotecan]?
A: Anaemia, Grade 3–4, %Cycles [1]: 1%; Anaemia, all grades, %Cycles [1]: 92%; Episodes of grade 3–4 neutropenia with duration <8 days [1]: 53%; Febrile neutropenia, %Patients [1]: 75%; Leukocytopenia, Grade 3–4, %Cycles [1]: 15%; Leukocytopenia, all grades, %Cycles [1]: 70%; Neutropenia, Grade 3–4, %Cycles [1]: 21%; Neutropenia, all grades, %Cycles [1]: 65%; Neutropenic infection, %Cycles [1]: 1%; Neutropenic infection, %Patients [1]: 2%; Number of patients with at least one grade 3–4 adverse event possibly or probably related to irinotecan [1]: 12; Patients with at least one grade 3–4 adverse event possibly or probably related to irinotecan, % [1]: 29%; Thrombocytopenia, Grade 3–4, %Cycles [1]: 0/0%; Thrombocytopenia, all grades, %Cycles [1]: 14%; Alopecia, all grades, % of patients [2]: 71 ^b %; Anorexia, all grades, % of patients [2]: 12%; Cholinergic syndrome, all grades, % of patients [2]: 68 ^a %; Diarrhoea, Grade 3–4, % of patients [2]: 10%; Diarrhoea, all grades, % of patients [2]: 88%; Fatigue, Grade 3–4, % of patients [2]: 7%; Fatigue, all grades, % of patients [2]: 51%; Fever in absence of infection, Grade 3–4, % of patients [2]: 2%; Fever in absence of infection, all grades, % of patients [2]: 12%; Gastrointestinal pain, Grade 3–4, % of patients [2]: 2%; Gastrointestinal pain, all grades, % of patients [2]: 17%; Infection, Grade 3–4, % of patients [2]: 2%; Infection, all grades, % of patients [2]: 7%; Nausea, Grade 3–4, % of patients [2]: 15%; Nausea, all grades, % of patients [2]: 73%; Vomiting, Grade 3–4, % of patients [2]: 10%; Vomiting, all grades, % of patients [2]: 54%; Median time to recovery from grade 3–4 neutropenia (arm A (350 mg m^−2 90-min i.v. q3 weeks), range 6–14): 7 days; Median number of days to grade 3–4 nadir (neutropenia) (arm A (350 mg m^−2 90-min i.v. q3 weeks), range 6–17): 9 days; Anaemia, Grade 3–4, %Patients [1]: 2%; Anaemia, all grades, %Patients [1]: 98%; Leukocytopenia, Grade 3–4, %Patients [1]: 20%; Leukocytopenia, all grades, %Patients [1]: 73%; Neutropenia, Grade 3–4, %Patients [1]: 34%; Neutropenia, all grades, %Patients [1]: 73%; Thrombocytopenia, Grade 3–4, %Patients [1]: 0/0%; Thrombocytopenia, all grades, %Patients [1]: 24%; Anaemia, Grade 3–4, %Cycles [3]: 1%; Anaemia, all grades, %Cycles [3]: 87%; Episodes of grade 3–4 neutropenia with duration <8 days [3]: 77%; Febrile neutropenia, %Cycles [3]: 2%; Febrile neutropenia, %Patients [3]: 5%; Leukocytopenia, Grade 3–4, %Cycles [3]: 6%; Leukocytopenia, all grades, %Cycles [3]: 53%; Neutropenia, Grade 3–4, %Cycles [3]: 12%; Neutropenia, all grades, %Cycles [3]: 50%; Number of patients with at least one grade 3–4 adverse event possibly or probably related to irinotecan [3]: 11; Patients with at least one grade 3–4 adverse event possibly or probably related to irinotecan, % [3]: 30%; Thrombocytopenia, Grade 3–4, %Cycles [3]: 0/0%; Thrombocytopenia, all grades, %Cycles [3]: 6%; Alopecia, all grades, % of patients [4]: 43%; Anorexia, all grades, % of patients [4]: 14%; Cholinergic syndrome, all grades, % of patients [4]: 41 ^a %; Diarrhoea, Grade 3–4, % of patients [4]: 24%; Diarrhoea, all grades, % of patients [4]: 76%; Fatigue, Grade 3–4, % of patients [4]: 3%; Fatigue, all grades, % of patients [4]: 38%; Fever in absence of infection, all grades, % of patients [4]: 19%; Gastrointestinal pain, Grade 3–4, % of patients [4]: 3%; Gastrointestinal pain, all grades, % of patients [4]: 16%; Infection, Grade 3–4, % of patients [4]: 5%; Infection, all grades, % of patients [4]: 11%; Nausea, Grade 3–4, % of patients [4]: 5%; Nausea, all grades, % of patients [4]: 73%; Vomiting, Grade 3–4, % of patients [4]: 3%; Vomiting, all grades, % of patients [4]: 57%; Median time to recovery from grade 3–4 neutropenia (arm B (125 mg m^−2 90-min i.v. weekly × 4 q6 weeks), range 2–15): 7 days; Median number of days to grade 3–4 nadir (neutropenia) (arm B (125 mg m^−2 90-min i.v. weekly × 4 q6 weeks), range 4–13): 7 days; Anaemia, Grade 3–4, %Patients [3]: 3%; Anaemia, all grades, %Patients [3]: 92%; Leukocytopenia, Grade 3–4, %Patients [3]: 14%; Leukocytopenia, all grades, %Patients [3]: 68%; Neutropenia, Grade 3–4, %Patients [3]: 25%; Neutropenia, all grades, %Patients [3]: 61%; Thrombocytopenia, Grade 3–4, %Patients [3]: 0/0%; Thrombocytopenia, all grades, %Patients [3]: 11%; Anaemia, Grade 3–4, %Cycles [5]: 4/4%; Anaemia, all grades, %Cycles [5]: 90%; Discontinuation due to toxicity, main reason diarrhoea [5]: 7%; Episodes of grade 3–4 neutropenia with duration <8 days [5]: 84%; Febrile neutropenia, %Cycles [5]: 1%; Febrile neutropenia, %Patients [5]: 7%; Leukocytopenia, Grade 3–4, %Cycles [5]: 6%; Leukocytopenia, all grades, %Cycles [5]: 56%; Neutropenia, Grade 3–4, %Cycles [5]: 20%; Neutropenia, all grades, %Cycles [5]: 57%; Neutropenic infection, %Cycles [5]: 1%; Neutropenic infection, %Patients [5]: 2%; Number of patients with at least one grade 3–4 adverse event possibly or probably related to irinotecan [5]: 14; Patients who discontinued treatment due to toxicity (from the study drug) [5]: 11%; Patients with at least one grade 3–4 adverse event possibly or probably related to irinotecan, % [5]: 30%; Thrombocytopenia, Grade 3–4, %Cycles [5]: 0/0%; Thrombocytopenia, all grades, %Cycles [5]: 6%; Alopecia, all grades, % of patients [6]: 67 ^b %; Anorexia, all grades, % of patients [6]: 17%; Cholinergic syndrome, Grade 3–4, % of patients [6]: 2%; Cholinergic syndrome, all grades, % of patients [6]: 61 ^a %; Diarrhoea, Grade 3–4, % of patients [6]: 13%; Diarrhoea, all grades, % of patients [6]: 74%; Fatigue, Grade 3–4, % of patients [6]: 4%; Fatigue, all grades, % of patients [6]: 61%; Fever in absence of infection, Grade 3–4, % of patients [6]: 4%; Fever in absence of infection, all grades, % of patients [6]: 15%; Gastrointestinal pain, Grade 3–4, % of patients [6]: 2%; Gastrointestinal pain, all grades, % of patients [6]: 17%; Infection, all grades, % of patients [6]: 11%; Nausea, Grade 3–4, % of patients [6]: 9%; Nausea, all grades, % of patients [6]: 65%; Vomiting, Grade 3–4, % of patients [6]: 9%; Vomiting, all grades, % of patients [6]: 50%; Median time to recovery from grade 3–4 neutropenia (arm C (250 mg m^−2 90-min i.v. q2 weeks), range 1–12): 7 days; Median number of days to grade 3–4 nadir (neutropenia) (arm C (250 mg m^−2 90-min i.v. q2 weeks), range 6–17): 7 days; Anaemia, Grade 3–4, %Patients [5]: 4/4%; Anaemia, all grades, %Patients [5]: 91%; Leukocytopenia, Grade 3–4, %Patients [5]: 15%; Leukocytopenia, all grades, %Patients [5]: 70%; Neutropenia, Grade 3–4, %Patients [5]: 28%; Neutropenia, all grades, %Patients [5]: 65%; Thrombocytopenia, Grade 3–4, %Patients [5]: 0/0%; Thrombocytopenia, all grades, %Patients [5]: 15%; Anaemia, Grade 3–4, %Cycles [7]: 0/0%; Anaemia, all grades, %Cycles [7]: 83%; Discontinuation due to toxicity, main reason diarrhoea [7]: 14%; Discontinuation due to toxicity, main reason vomiting [7]: 14%; Episodes of grade 3–4 neutropenia with duration <8 days [7]: 25%; Leukocytopenia, Grade 3–4, %Cycles [7]: 3%; Leukocytopenia, all grades, %Cycles [7]: 24%; Neutropenia, Grade 3–4, %Cycles [7]: 5%; Neutropenia, all grades, %Cycles [7]: 15%; Neutropenic infection, %Cycles [7]: 1%; Neutropenic infection, %Patients [7]: 2%; Number of patients with at least one grade 3–4 adverse event possibly or probably related to irinotecan [7]: 22; Patients who discontinued treatment due to toxicity (from the study drug) [7]: 21%; Patients with at least one grade 3–4 adverse event possibly or probably related to irinotecan, % [7]: 50%; Thrombocytopenia, Grade 3–4, %Cycles [7]: 3%; Thrombocytopenia, all grades, %Cycles [7]: 8%; Alopecia, all grades, % of patients [8]: 34 ^b %; Anorexia, Grade 3–4, % of patients [8]: 5%; Anorexia, all grades, % of patients [8]: 34%; Cholinergic syndrome, all grades, % of patients [8]: 7 ^a %; Diarrhoea, Grade 3–4, % of patients [8]: 25%; Diarrhoea, all grades, % of patients [8]: 77%; Fatigue, Grade 3–4, % of patients [8]: 7%; Fatigue, all grades, % of patients [8]: 52%; Fever in absence of infection, all grades, % of patients [8]: 16%; Gastrointestinal pain, Grade 3–4, % of patients [8]: 2%; Gastrointestinal pain, all grades, % of patients [8]: 23%; Infection, Grade 3–4, % of patients [8]: 7%; Infection, all grades, % of patients [8]: 11%; Nausea, Grade 3–4, % of patients [8]: 23%; Nausea, all grades, % of patients [8]: 80%; Vomiting, Grade 3–4, % of patients [8]: 16%; Vomiting, all grades, % of patients [8]: 59%; Median time to recovery from grade 3–4 neutropenia (arm D (10 mg m^−2 day^−1 14-day continuous infusion q3 weeks), range 4–4): 4 days; Median number of days to grade 3–4 nadir (neutropenia) (arm D (10 mg m^−2 day^−1 14-day continuous infusion q3 weeks), range 14–19): 16 days; Anaemia, Grade 3–4, %Patients [7]: 0/0%; Anaemia, all grades, %Patients [7]: 91%; Leukocytopenia, Grade 3–4, %Patients [7]: 5%; Leukocytopenia, all grades, %Patients [7]: 30%; Neutropenia, Grade 3–4, %Patients [7]: 9%; Neutropenia, all grades, %Patients [7]: 23%; Thrombocytopenia, Grade 3–4, %Patients [7]: 5%; Thrombocytopenia, all grades, %Patients [7]: 9%
